Experimental data published in patent publication US20040116352A1, “Active substance combination containing a compound with an opioid effect and at least one further compound of formula 1” (priority 2000, published 2004).

Tested on: rats
Assay: Tail-flick (focal-ray) test on rats
Format: in vivo, rat
Settings: female Sprague Dawley rats, intravenous, 1.46 mg/kg morphine only, measured 10, 20, 40 and 60 min after application, FIGS. 1 and 2
Source text: The analgesic effect of the inventive active substance combinations and the comparative solutions was investigated in the focal-ray (tail-flick) test on rats according to D'Amour and Smith, J. Pharm. Exp. Ther. Vol. 72, pages 74-79, 1941. For this, female Sprague Dawley rats (Janvier, France) weighing between 120 and 150 g were used.
The rats were each placed in a test cage and the base of the tail exposed to the focused radiant heat from an electric lamp (tail-flick type 50/08/1.bc, Labtec, Dr. Hess). The lamp intensity was set so that the time from when the lamp was switched on until the tail was suddenly jerked away (pain latency) was 3 to 5 seconds in untreated rats. Before the application of the inventive active substance combinations and the comparative solutions, the rats were pre-tested twice within five minutes and the mean value of these measurements calculated as the pre-test mean value. The solutions of the inventive active substance combinations and the comparative solutions were then applied intravenously. The pain measurements were performed at 10, 20, 40 and 60 minutes respectively after the intravenous application. The analgesic effect was determined as an increase in the pain latency (% of the maximum possible antinociceptive effect) according to the following formula: […]

CN1CC[C@]23c4c5ccc(O)c4O[C@H]2[C@@H](O)C=C[C@H]3[C@H]1C5 [Comparative Example 1, morphine]
analgesic effect (increase in pain latency, % of the maximum possible antinociceptive effect): good analgesic effect
